Source: BindingDB's records for doi:10.1021/acsmedchemlett.0c00495 (Janssen Research & Development, 2020)

Biological target: Cannabinoid receptor 2 (Homo sapiens, UniProt P34972)
Assay: Inverse agonist activity at human CB2 receptor expressed in HEK293 cells assessed as forskolin-stimulated cAMP accumulation after 30 mins by HTRF assay

Sequence of Cannabinoid receptor 2 (P34972 whole entry): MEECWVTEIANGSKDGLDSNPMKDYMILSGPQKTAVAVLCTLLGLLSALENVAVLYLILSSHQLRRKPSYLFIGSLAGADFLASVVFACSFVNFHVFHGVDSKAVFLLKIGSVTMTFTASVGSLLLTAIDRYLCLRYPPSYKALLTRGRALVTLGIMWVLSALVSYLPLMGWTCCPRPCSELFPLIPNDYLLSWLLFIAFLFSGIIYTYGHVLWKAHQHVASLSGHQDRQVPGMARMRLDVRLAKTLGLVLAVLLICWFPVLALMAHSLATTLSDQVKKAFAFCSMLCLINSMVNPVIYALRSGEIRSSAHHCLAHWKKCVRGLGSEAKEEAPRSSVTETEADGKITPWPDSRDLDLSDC

EC50: > 10 µM
SMILES: Nc1nc(NC2CCN(S(=O)(=O)C(F)(F)F)CC2)c2cc(C(c3ccc(Cl)cc3)c3ccc(Cl)cc3)ccc2n1 [US9682955, 107]
